Test results reported in PubChem BioAssay (NCI).
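These data come from cells grown in 96-well plates and exposed to compound for 48 hours at five concentrations. GI50 = concentration required for 50% inhibition of growth. TGI is the concentration that stops growth completely.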

What was measured:
Experiment in all cases: NCI anticancer screen, dose series, 48 h
HCT-15 colon = test system: HCT-15 colon
MALME-3M melanoma = test system: MALME-3M melanoma
OVCAR-8 ovarian = test system: OVCAR-8 ovarian
SK-MEL-5 melanoma = test system: SK-MEL-5 melanoma
U251 CNS = test system: U251 CNS
UACC-62 melanoma = test system: UACC-62 melanoma
UO-31 renal = test system: UO-31 renal
MDA-MB-231 breast = test system: MDA-MB-231 breast
PC-3 prostate = test system: PC-3 prostate
MDA-MB-435 = test system: MDA-MB-435

Row | SMILES | TGI (HCT-15 colon) [µM] | TGI (MALME-3M melanoma) [µM] | TGI (OVCAR-8 ovarian) [µM] | TGI (SK-MEL-5 melanoma) [µM] | TGI (U251 CNS) [µM] | TGI (UACC-62 melanoma) [µM] | TGI (UO-31 renal) [µM] | GI50 (HCT-15 colon) [µM] | GI50 (MALME-3M melanoma) [µM] | GI50 (MDA-MB-231 breast) [µM] | TGI (MDA-MB-231 breast) [µM] | GI50 (OVCAR-8 ovarian) [µM] | GI50 (PC-3 prostate) [µM] | TGI (PC-3 prostate) [µM] | GI50 (SK-MEL-5 melanoma) [µM] | GI50 (U251 CNS) [µM] | GI50 (UACC-62 melanoma) [µM] | GI50 (UO-31 renal) [µM] | TGI (MDA-MB-435) [µM] | GI50 (MDA-MB-435) [µM]
1 | O=C1C2c3[nH]c4ccccc4c3[C@@H]3CCCCC3C2C(=O)N1c1ccccc1 (some centres undefined) | > 100 | 38.4 | 52.9 | 32.1 | 28 | 38.5 | 45 |  |  |  |  |  |  |  |  |  |  |  |  | 
2 | CCCCCCCCCCCCN(O)C(=O)c1ccccc1 | > 100 | 60.7 | 74.3 |  | 29.8 | > 100 | > 100 |  |  |  |  |  |  |  |  |  |  |  |  | 
3 | COc1cc([C@@H]2c3cc4c(cc3[C@@H](NC(=O)c3cccc(F)c3)C3COC(=O)[C@@H]32)OCO4)cc(OC)c1O (some centres undefined) | 7.09 | 7.83 | 16.1 | 12.7 | 1.94 | 3.7 | 11.2 |  |  |  |  |  |  |  |  |  |  |  |  | 
4 | Cc1ccc(C)c(NC(=O)CCc2nc(=S)[nH][nH]2)c1 | > 100 | > 100 | > 100 | > 100 | > 100 | > 100 | > 100 |  |  |  |  |  |  |  |  |  |  |  |  | 
5 | COc1ccc(C(=O)c2cc3c(N)c(C(=O)Nc4cccc(Cl)c4C)sc3nc2C)cc1 | > 25 | > 25 | > 25 | 2.45 | > 25 | > 25 | > 25 | 0.101 | 0.205 | 0.142 | > 25 | 0.125 | 0.122 | > 25 | 0.109 | 0.104 | 0.12 | 0.634 |  | 
6 | O=C(O)Cn1c(=O)[nH]c(=O)c2c1ncn2Cc1ccccc1 | > 100 | > 100 | > 100 | > 100 | > 100 | > 100 | > 100 |  |  |  |  |  |  |  |  |  |  |  |  | 
7 | Cc1ccc2[nH]c3c(ncc4[nH]c5ccccc5c43)c2c1 |  | 33.7 | 35.9 |  | 28 | 31.7 | 30.3 |  |  |  |  |  |  |  |  |  |  |  |  | 
8 | O=C(NNC(=O)c1cc(/C=C/c2cccc([N+](=O)[O-])c2)[nH]c(=S)n1)Nc1ccc(Cl)cc1 | > 100 | > 100 | > 100 | > 100 | 30.2 | > 100 | > 100 |  |  |  |  |  |  |  |  |  |  |  |  | 
9 | Cc1cc(C)c(S(=O)(=O)ONC(=O)OC(C)(C)C)c(C)c1 | > 100 | > 100 | > 100 | > 100 | > 100 | > 100 | > 100 |  |  |  |  |  |  |  |  |  |  |  |  | 
10 | CC/C(C)=C1\OC(=O)C(C)C(O)C(Cc2cccnc2)NC(=O)C(NC(=O)c2ncccc2O)C(C)OC1=O (centres undefined) | > 100 | > 100 | > 100 | > 100 | > 100 | > 100 |  |  |  |  | > 100 |  |  | > 100 |  |  |  |  | > 100 | 
11 | COC12CC(=O)C(C(C)=O)=C(O)C1(C)c1c(OC(C)=O)c(C)c(O)c(C(C)=O)c1O2 (centres undefined) | > 100 | 60.2 | > 100 |  | > 100 | 23.4 | 33 |  |  |  |  |  |  |  |  |  |  |  |  | 
12 | CC(=O)OCC1O[C@@H]([S-])C(OC(C)=O)[C@H](OC(C)=O)[C@@H]1OC(C)=O.[Au+].c1ccc(CN2[CH-]N(Cc3ccccc3)C(c3ccccc3)=C2c2ccccc2)cc1 | 2.94 | 4.06 | 7.38 | 3.28 | 3.09 | 3.47 | 4.47 | 1.47 | 1.77 |  |  | 2.61 | 1.83 | 3.7 | 1.79 | 1.61 | 1.76 | 1.95 | 3.1 | 1.66
